The subject of one experiment is S. aureus ATCC 25923. It counts as cell-based, Staphylococcus aureus. The following applies: ATCC 25923, 18 h. From the text:
(§1) To compare the antimicrobial activity among the peptides produced by the method of Example 1, the inventors of the present invention measured the minimal growth inhibitory concentration (MIC), which is minimum concentration of the peptide not allowing any […] of bacterial cells.
(§2) Specifically, the bacterial strains described in the following Table 2 were purchased and cultured to a mid-log phase in MHB (Mueller Hinton Broth) medium. Then, after dilution to bacterial cell concentration of 2×10^5 cells/50 μl, the cells were inoculated to a microtiter plate (NUNC, USA). Thereafter, LL37-1, LL37-2, LL37-3 or LL37-4 peptide which has been synthesized in Example 1 above was subjected to serial dilution, ½ times for each, in a 96-well plate. After adding the peptides in an amount of 50 μl to the cell plate, the cells were cultured for 18 hours at 37° C. By using a microtiter plate reader (Merck Elisa reader, Germany), the absorbance was measured at a wavelength of 600 nm to determine the MIC value of each bacterial strain. As a control group, LL37 as a mother peptide was used and subjected to the same process as above to determine the MIC value of each strain.

Experiment [1] concerns L. monocytogenes KCTC 3710. The format is cell-based, Listeria monocytogenes. Particulars: KCTC 3710, 18 h.
Source text: as §1, §2

The subject of another experiment is S. typhimurium KCTC 1925. It counts as cell-based, Salmonella typhimurium. Particulars: KCTC 1925, 18 h.
Source text: as §1, §2

Another experiment deals with A. baumannii #10. Nature of the experiment: Antibiofilm activity, Crystal violet staining. The format is cell-based, Acinetobacter baumannii. Particulars: 24 hours. The method, then:
(§3) To compare the antimicrobial activity among the peptides produced by the method of Example 1, the inventors of the present invention measured the biofilm inhibitory concentration value of the peptide for not allowing any dissociation of bacterial cells.
(§4) Specifically, among the bacterial strains described in the above Table 2, bacteria showing the most favorable biofilm forming were cultured to a mid-log phase in a medium with suitable composition. Then, after dilution to bacterial cell concentration of 1×10^6 cells/50 μl, the cells were inoculated to a microtiter plate. Thereafter, LL37, LL37-1, LL37-2, LL37-3 or LL37-4 peptide which has been synthesized in Example 1 above was diluted, 1/10 times for each, with 10 mM phosphate buffered physiological saline (PBS) in a 96-well plate. After adding the peptide (50 μl) to each well of the plate, the cells were cultured for 24 hours at 37° C. After removing the supernatant completely, the cells were fixed with 100% methanol for 15 minutes and stained for 1 hour with Crystal violet staining solution followed by rinsing for 3 times. Then, after dissolving in 95% ethanol, the absorbance was measured at a wavelength of 595 nm by using a microtiter plate reader to determine the biofilm minimal inhibitory concentration value of each bacterial strain.

The next experiment concerns A. baumannii #5. Nature of the experiment: Antibiofilm activity, Crystal violet staining. The following applies: 24 hours. It counts as cell-based, Acinetobacter baumannii. The protocol:
as §3, §4

For a further experiment, the system named is A. baumannii KCTC 2508. Nature of the experiment: Antibiofilm activity, Crystal violet staining. The format is cell-based, Acinetobacter baumannii. Particulars: 24 hours. The protocol: as §3, §4
Experiment [2] deals with Acinetobacter baumannii KCTC 2508. Nature of the experiment: Flow cytometry after PI staining (bacteria membrane). The format is cell-based. The following applies: peptide at concentration of MIC, 30 minutes at 37° C. The protocol: To determine whether or not the peptides prepared by the method of Example 1 have any effect on bacteria membrane, an analysis was made by flow cytometry.
After that, the supernatant was removed by centrifuge (10,000 rpm) and stained with propidium iodide (PI, concentration of 10 μg/ml) for 30 minutes at 4° C. Thereafter, unbound propidium iodide was removed by centrifuge, and the problem of cell aggregation phenomenon was solved by adding physiological saline (PBS) in an amount of 1 ml.
(In general: In flow cytometry, cells or beads pass a laser one at a time.)

Experiment [3] has the same test system. Nature of the experiment: Low vacuum scanning electron microscopy (membrane-disrupting property). It counts as cell-based. The following applies: peptide at MIC concentration, 30 minutes at 37° C. The method, then:
To specifically determine the degree of antimicrobial activity of the synthesized peptides of the present invention, the influence of mother peptide LL37 and homologous peptides LL37-1, LL37-2, LL37-3 and LL37-4 on bacteria membrane, i.e., membrane-disrupting property, was determined by low vacuum scanning electron microscopy.
Specifically, Acinetobacter baumannii KCTC 2508 cells were cultured to a mid-log phase in MHB medium, and then diluted to a cell concentration of 2×10^7 cells/ml in physiological saline containing 10% MHB medium. […] After that, by using 2.5% glutaraldehyde, the bacterial cells were fixed for 30 minutes at room temperature and then for 12 hours at 4° C. After carrying out washing with buffer, the cells were fixed again with […] and dehydrated in stepwise manner by using ethanol. After the dehydration, platinum coating was carried out and the cells were observed by low vacuum scanning electron microscopy.

Experiment [4] deals with Human macrophage cells (U937) infected with Acinetobacter baumannii KCTC 2508. Nature of the experiment: Expression of inflammatory cytokines, Western blot and real time RT-PCR. It counts as cell-based. The following applies: U937 infected with A. baumannii KCTC 2508, peptide added 1 hour after infection, sample after 9 hours. The method, then:
To see whether or not a change in expression of inflammatory cytokines in macrophage is caused by the peptides that are prepared by the method of above Example 1, determination was made by Western blot and real time reverse transcription polymerase chain reaction.
Specifically, Acinetobacter baumannii KCTC 2508 cells were cultured to a mid-log phase in MHB medium, and then diluted to a cell concentration of 1×10^7 cells/ml in physiological saline. Human macrophage cells (U937) were then infected with the resulting cells in time-dependent manner to yield the first sample, and another macrophage cells were infected with Acinetobacter baumannii KCTC 2508 cells, which have been diluted to a concentration of 1×10^7 cells, and added with, 1 hour after the infection, mother peptide LL37 or the homologous peptide to collect the second sample after 9 hours. Both collected samples were treated with cell lysis buffer to obtain the supernatant (sup) and pellet (lysate). Thereafter, by Western blot and real time reverse transcription polymerase chain reaction, a change in the expression level of inflammatory cytokines was examined.
Background: Immunoblotting shows a protein as a band on a membrane.

Each structure is given as a SMILES string. ≈ marks a conversion by molar mass, not a printed value.

Consider `CC[C@H](C)[C@H](NC(=O)[C@H](CCCCN)NC(=O)[C@H](CCC(=O)O)NC(=O)[C@H](CCCCN)NC(=O)[C@H](CO)NC(=O)[C@H](CCCCN)NC(=O)[C@H](CCCNC(=N)N)NC(=O)[C@H](Cc1ccccc1)NC(=O)[C@H](Cc1ccccc1)NC(=O)[C@H](CC(=O)O)NC(=O)CNC(=O)[C@H](CC(C)C)NC(=O)[C@@H](N)CC(C)C)C(=O)NCC(=O)N[C@@H](CCCCN)C(=O)N[C@@H](CCC(=O)O)C(=O)N[C@@H](Cc1ccccc1)C(=O)N[C@@H](CCCCN)C(=O)N[C@@H](CCCNC(=N)N)C(=O)N[C@H](C(=O)N[C@H](C(=O)N[C@@H](CCC(N)=O)C(=O)N[C@@H](CCCNC(=N)N)C(=O)N[C@H](C(=O)N[C@@H](CCCCN)C(=O)N[C@@H](CC(=O)O)C(=O)N[C@@H](Cc1ccccc1)C(=O)N[C@@H](CC(C)C)C(=O)N[C@@H](CCCNC(=N)N)C(=O)N[C@@H](CC(N)=O)C(=O)N[C@@H](CC(C)C)C(=O)N[C@H](C(=O)N1CCC[C@H]1C(=O)N[C@@H](CCCNC(=N)N)C(=O)N[C@H](C(=O)N[C@@H](CCC(=O)O)C(=O)N[C@@H](CO)C(N)=O)[C@@H](C)O)C(C)C)[C@@H](C)CC)C(C)C)[C@@H](C)CC` [LL37], for which the Minimal inhibitory concentration amounted to 16 µM (≈ 71.9 µg/mL) with S. aureus ATCC 25923, 64 µM (≈ 288 µg/mL) in experiment [1] and 32 µM (≈ 144 µg/mL) in the experiment with S. typhimurium KCTC 1925. Also, the Biofilm forming ability was determined as 62% with A. baumannii #10 (peptide 2 μM); 58% with A. baumannii #10 (peptide 4 μM); 54% in the experiment on A. baumannii #10 (peptide 8 μM); 53% in the experiment with A. baumannii #10 (peptide 16 μM); 13% in the experiment on A. baumannii #10 (peptide 32 μM); 97% in the experiment with A. baumannii #5 (peptide 2 μM). Besides, the Biofilm forming ability in the experiment on A. baumannii #5 (peptide 4 μM) is listed as 74%; with A. baumannii #5 (peptide 8 μM), 40%; in the experiment on A. baumannii #5 (peptide 16 μM), 36%; with A. baumannii #5 (peptide 32 μM), 15%; in the experiment with A. baumannii KCTC 2508 (peptide 2 μM), 42%; in the experiment on A. baumannii KCTC 2508 (peptide 4 μM), 39%. Further, the Biofilm forming ability is reported as 33% in the experiment with A. baumannii KCTC 2508 (peptide 8 μM), 23% with A. baumannii KCTC 2508 (peptide 16 μM) and 10% in the experiment with A. baumannii KCTC 2508 (peptide 32 μM). In addition, in [2], the “effect on bacteria membrane (PI fluorescence, flow cytometry)” value is “bacteria membrane was damaged”. Moreover, in experiment [3], the “membrane-disrupting property (scanning electron microscopy)” value is given as “disruption of bacteria membrane”. The “expression level of HMGB-1 and late cytokine (IL-1b and TNF-α)” value in experiment [4] was “has increased more”.

These data come from patent publication US11452758B2, “Antimicrobial peptide derived from LL37 peptide and uses thereof” (INDUSTRY-ACADEMIC COOPERATION FOUNDATION, CHOSUN UNIVERSITY, priority 2018, dated 2022).
